Measurements published in BindingDB's records for doi:10.1016/j.bmc.2013.11.045 (Northern Kentucky University, 2013).
pIC50: −log10 of the molar value.

Assay: Inhibition of aromatase in human MCF7 cells

pIC50	Structure (SMILES)
4.77	O=C1c2ccccc2OCC1c1ccc(Oc2ccccc2)cc1 (configuration not stated)
4.36	O=C1c2ccccc2OCC1c1cccnc1 (configuration not stated)
